Results on 33 compounds are retold here after patent US10392391B2 (Vertex Pharmaceuticals Incorporated, priority 2012, dated 2019).

The target of this assay is ATR kinase (full-length ATR) (Homo sapiens (Human), UniProt Q13535). As to the kind of experiment: ATR inhibition assay (radioactive-phosphate incorporation). It is filed as biochemical. A digest of the protocol:
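Ki(app) was fitted by non-linear regression to background-corrected initial rates. Full-length ATR (5 nM) phosphorylated 800 μM peptide using 10 μM [γ-33P]ATP at 25° C in Tris/HCl pH 7.5 buffer with MgCl2, DTT and 7% DMSO. After 10-minute compound pre-incubation and 24-hour reaction, phosphocellulose filters were scintillation counted.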

The mark [1] stands for this setting: Ki(app), 5 nM full-length ATR, 10 μM ATP, 25° C.

Like-named read-outs stand apart in the source and are kept apart here. Where only a bound is given, the exact number is not on record here.

ATR kinase (full-length ATR), sequence (Q13535 whole entry): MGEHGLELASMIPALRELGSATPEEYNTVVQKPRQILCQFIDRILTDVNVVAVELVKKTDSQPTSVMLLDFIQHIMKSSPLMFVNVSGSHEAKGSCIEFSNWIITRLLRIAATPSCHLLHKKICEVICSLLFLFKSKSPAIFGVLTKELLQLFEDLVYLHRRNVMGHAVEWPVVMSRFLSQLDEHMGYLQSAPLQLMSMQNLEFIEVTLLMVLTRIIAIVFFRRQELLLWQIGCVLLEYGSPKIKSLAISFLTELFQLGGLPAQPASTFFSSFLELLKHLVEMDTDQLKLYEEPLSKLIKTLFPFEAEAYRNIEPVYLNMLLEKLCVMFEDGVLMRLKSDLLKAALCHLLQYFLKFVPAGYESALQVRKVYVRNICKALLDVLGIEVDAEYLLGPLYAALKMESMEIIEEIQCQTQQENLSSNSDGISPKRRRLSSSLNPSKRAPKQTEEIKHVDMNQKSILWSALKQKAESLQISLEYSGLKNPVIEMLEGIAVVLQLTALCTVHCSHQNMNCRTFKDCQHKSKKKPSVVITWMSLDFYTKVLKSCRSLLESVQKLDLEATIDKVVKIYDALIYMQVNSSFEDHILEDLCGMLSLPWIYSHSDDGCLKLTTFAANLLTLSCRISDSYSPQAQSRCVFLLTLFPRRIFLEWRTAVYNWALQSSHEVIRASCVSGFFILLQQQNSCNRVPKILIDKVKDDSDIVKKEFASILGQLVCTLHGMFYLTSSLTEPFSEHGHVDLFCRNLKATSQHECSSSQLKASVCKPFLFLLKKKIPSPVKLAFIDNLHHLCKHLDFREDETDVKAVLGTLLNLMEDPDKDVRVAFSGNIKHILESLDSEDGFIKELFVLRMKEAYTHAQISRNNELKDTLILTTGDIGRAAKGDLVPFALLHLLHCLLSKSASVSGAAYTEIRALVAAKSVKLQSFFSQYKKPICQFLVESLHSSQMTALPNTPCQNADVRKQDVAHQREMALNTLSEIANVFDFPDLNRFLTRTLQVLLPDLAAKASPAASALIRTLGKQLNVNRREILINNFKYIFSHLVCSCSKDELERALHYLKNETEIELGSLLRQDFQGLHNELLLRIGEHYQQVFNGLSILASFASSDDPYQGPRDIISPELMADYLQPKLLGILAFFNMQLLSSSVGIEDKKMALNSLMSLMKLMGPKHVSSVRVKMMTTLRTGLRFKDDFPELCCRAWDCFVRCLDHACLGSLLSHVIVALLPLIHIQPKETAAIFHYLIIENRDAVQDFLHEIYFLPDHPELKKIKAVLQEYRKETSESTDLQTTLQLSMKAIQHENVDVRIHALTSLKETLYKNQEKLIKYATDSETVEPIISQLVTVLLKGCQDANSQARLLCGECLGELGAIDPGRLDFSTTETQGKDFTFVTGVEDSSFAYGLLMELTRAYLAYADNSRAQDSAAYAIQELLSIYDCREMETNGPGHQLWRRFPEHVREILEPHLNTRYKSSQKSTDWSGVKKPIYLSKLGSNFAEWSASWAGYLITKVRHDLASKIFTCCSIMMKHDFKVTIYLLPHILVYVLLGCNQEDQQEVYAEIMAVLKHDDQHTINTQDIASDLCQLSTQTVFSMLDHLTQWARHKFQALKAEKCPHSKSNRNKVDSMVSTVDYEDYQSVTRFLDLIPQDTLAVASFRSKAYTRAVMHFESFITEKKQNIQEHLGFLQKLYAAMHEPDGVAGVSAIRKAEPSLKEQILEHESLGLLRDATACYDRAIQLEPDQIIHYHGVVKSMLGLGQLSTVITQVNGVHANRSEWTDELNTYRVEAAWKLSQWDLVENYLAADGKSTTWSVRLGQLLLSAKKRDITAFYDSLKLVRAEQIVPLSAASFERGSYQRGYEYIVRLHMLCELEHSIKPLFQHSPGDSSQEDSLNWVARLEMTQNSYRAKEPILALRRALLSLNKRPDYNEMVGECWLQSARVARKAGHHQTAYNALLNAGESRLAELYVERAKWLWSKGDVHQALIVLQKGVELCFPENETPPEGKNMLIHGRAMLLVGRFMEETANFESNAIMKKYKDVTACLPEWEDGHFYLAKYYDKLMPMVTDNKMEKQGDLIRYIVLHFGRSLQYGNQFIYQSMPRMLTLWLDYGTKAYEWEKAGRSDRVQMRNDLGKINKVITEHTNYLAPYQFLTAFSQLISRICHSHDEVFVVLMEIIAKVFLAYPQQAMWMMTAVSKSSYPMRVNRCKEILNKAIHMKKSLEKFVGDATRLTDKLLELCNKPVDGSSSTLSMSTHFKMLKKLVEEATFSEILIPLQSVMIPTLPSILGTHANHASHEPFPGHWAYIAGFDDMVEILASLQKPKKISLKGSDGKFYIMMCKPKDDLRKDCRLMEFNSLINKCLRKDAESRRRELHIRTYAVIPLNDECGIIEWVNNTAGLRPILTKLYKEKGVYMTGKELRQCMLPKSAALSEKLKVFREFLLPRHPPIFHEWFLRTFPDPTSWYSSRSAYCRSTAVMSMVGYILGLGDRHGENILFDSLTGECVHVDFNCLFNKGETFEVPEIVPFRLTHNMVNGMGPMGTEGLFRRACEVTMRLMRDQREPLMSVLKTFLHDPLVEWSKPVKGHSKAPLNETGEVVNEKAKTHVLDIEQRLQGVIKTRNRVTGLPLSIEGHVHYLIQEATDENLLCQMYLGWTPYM

In the case of `Nc1nn2cc(F)cnc2c1C(=O)Nc1cnccc1-c1cccnc1` [I-C-15, N-([3,4′-bipyridin]-3′-yl)-2-amino-6-fluoropyrazolo[1,5-a]pyrimidine-3-carboxamide], the Ki under setting [1] lay within 10 to 1000 nM. On to `CN1CCN(c2ccncc2NC(=O)c2c(N)nn3cc(Cl)cnc23)CC1CO` (stereo not drawn) [I-N-63, 2-amino-6-chloro-N-(4-(3-(hydroxymethyl)-4-methylpiperazin-1-yl)pyridin-3-yl)pyrazolo[1,5-a]pyrimidine-3-carboxamide], for which the Ki under setting [1] fell in the range of 10 to 1000 nM.

Consider `Nc1nn2cc(F)cnc2c1C(=O)Nc1cnccc1-c1cncnc1` [I-C-28, 2-amino-6-fluoro-N-(4-(pyrimidin-5-yl)pyridin-3-yl)pyrazolo[1,5-a]pyrimidine-3-carboxamide], for which the Ki under setting [1] lay within 10 to 1000 nM.

On to `N#CCc1cnc2c(C(=O)Nc3cnccc3-c3ccccc3)c(N)nn2c1` [I-C-6, 2-amino-6-(cyanomethyl)-N-(4-phenylpyridin-3-yl)pyrazolo[1,5-a]pyrimidine-3-carboxamide], for which, under setting [1], the Ki lay within 10 to 1000 nM. On the same count and under the same terms, under `Nc1nn2cc(F)cnc2c1C(=O)Nc1cnccc1Oc1cccnc1` [I-O-7, 2-amino-6-fluoro-N-(4-(pyridin-3-yloxy)pyridin-3-yl)pyrazolo[1,5-a]pyrimidine-3-carboxamide] stands 10 to 1000 nM; under `Nc1nn2cc(F)cnc2c1C(=O)Nc1cncc(F)c1N1CCN(C(=O)CN2CCCC2)CC1` [I-N-187, 2-amino-6-fluoro-N-(5-fluoro-4-(4-(2-(pyrrolidin-1-yl)acetyl)piperazin-1-yl)pyridin-3-yl)pyrazolo[1,5-a]pyrimidine-3-carboxamide], 10 to 1000 nM; under `Nc1nn2cc(Cl)cnc2c1C(=O)Nc1cnccc1OCCO` [I-O-66, 2-amino-6-chloro-N-(4-(2-hydroxyethoxy)pyridin-3-yl)pyrazolo[1,5-a]pyrimidine-3-carboxamide], 10 to 1000 nM. Turning to `CC1(C)CCCN1c1ccncc1NC(=O)c1c(N)nn2cc(F)cnc12` [I-N-220, 2-amino-N-(4-(2,2-dimethylpyrrolidin-1-yl)pyridin-3-yl)-6-fluoropyrazolo[1,5-a]pyrimidine-3-carboxamide], the Ki under setting [1] was in the range of 10 to 1000 nM. For `CN1CCN(c2c(NC(=O)c3c(N)nn4cc(F)cnc34)cncc2C2CC2)CC1` [I-N-5, 2-amino-N-(5-cyclopropyl-4-(4-methylpiperazin-1-yl)pyridin-3-yl)-6-fluoropyrazolo[1,5-a]pyrimidine-3-carboxamide], the Ki under setting [1] fell in the range of 10 to 1000 nM. On the same count and under the same terms, for `CC(C#N)c1cnc2c(C(=O)Nc3cncc(F)c3N3CCN(C4COC4)CC3)c(N)nn2c1` (stereo not drawn) [I-N-145] the value was 10 to 1000 nM; for `CN(C)CCOc1ccncc1NC(=O)c1c(N)nn2cc(CC#N)cnc12` [I-O-24, 2-amino-6-(cyanomethyl)-N-(4-(2-(dimethylamino)ethoxy)pyridin-3-yl)pyrazolo[1,5-a]pyrimidine-3-carboxamide], under 10 nM.

With `CC(=O)N1CCC2(CCN(c3ccncc3NC(=O)c3c(N)nn4cc(F)cnc34)CC2)C1` [I-N-257, N-(4-(2-acetyl-2,8-diazaspiro[4.5]decan-8-yl)pyridin-3-yl)-2-amino-6-fluoropyrazolo[1,5-a]pyrimidine-3-carboxamide], under setting [1], the Ki was in the range of 10 to 1000 nM.

On to `Nc1nn2cc(F)cnc2c1C(=O)Nc1cncc(C2CC2)c1N1CCN(C2COC2)CC1` [I-N-32, 2-amino-N-(5-cyclopropyl-4-(4-(oxetan-3-yl)piperazin-1-yl)pyridin-3-yl)-6-fluoropyrazolo[1,5-a]pyrimidine-3-carboxamide], for which the Ki under setting [1] was 10 to 1000 nM. Still for that read-out and setting: under `N#CC1CN(C(=O)C2CCN(c3ccncc3NC(=O)c3c(N)nn4cc(F)cnc34)CC2)C1` [I-G-81, 2-amino-N-(4-(4-(3-cyanoazetidine-1-carbonyl)piperidin-1-yl)pyridin-3-yl)-6-fluoropyrazolo[1,5-a]pyrimidine-3-carboxamide] stands 10 to 1000 nM; under `Nc1nn2cc(F)cnc2c1C(=O)Nc1cnccc1N1CCS(=O)(=O)CC1` [I-N-210, 2-amino-N-(4-(1,1-dioxidothiomorpholino)pyridin-3-yl)-6-fluoropyrazolo[1,5-a]pyrimidine-3-carboxamide], 10 to 1000 nM; under `CC(C)Oc1ccncc1NC(=O)c1c(N)nn2cc(CC#N)cnc12` [I-O-35, 2-amino-6-(cyanomethyl)-N-(4-isopropoxypyridin-3-yl)pyrazolo[1,5-a]pyrimidine-3-carboxamide], under 10 nM. Same read-out and setting: under `CN1CCN(C(=O)C2(C)CCN(c3c(F)cncc3NC(=O)c3c(N)nn4cc(F)cnc34)CC2)CC1` [I-G-54, 2-amino-6-fluoro-N-(5-fluoro-4-(4-methyl-4-(4-methylpiperazine-1-carbonyl)piperidin-1-yl)pyridin-3-yl)pyrazolo[1,5-a]pyrimidine-3-carboxamide] stands 10 to 1000 nM. With `CN1CCN(C(=O)C2CCCN(c3c(F)cncc3NC(=O)c3c(N)nn4cc(F)cnc34)C2)CC1` (stereo not drawn) [I-N-289, 2-amino-6-fluoro-N-(5-fluoro-4-(3-(4-methylpiperazine-1-carbonyl)piperidin-1-yl)pyridin-3-yl)pyrazolo[1,5-a]pyrimidine-3-carboxamide], the Ki was in the range of 1000 to 5000 nM. For the compound `COCC1CN(C(=O)C2CCN(c3c(F)cncc3NC(=O)c3c(N)nn4cc(F)cnc34)CC2)C1` [I-G-98, 2-amino-6-fluoro-N-(5-fluoro-4-(4-(3-(methoxymethyl)azetidine-1-carbonyl)piperidin-1-yl)pyridin-3-yl)pyrazolo[1,5-a]pyrimidine-3-carboxamide], the Ki under setting [1] lay within 10 to 1000 nM. As to `N#CC1CN(C(=O)C2CCN(c3c(F)cncc3NC(=O)c3c(N)nn4cc(F)cnc34)CC2)C1` [I-G-76, 2-amino-N-(4-(4-(3-cyanoazetidine-1-carbonyl)piperidin-1-yl)-5-fluoropyridin-3-yl)-6-fluoropyrazolo[1,5-a]pyrimidine-3-carboxamide], the Ki under setting [1] is 10 to 1000 nM. Same read-out and setting: for `Cc1ccncc1-c1ccncc1NC(=O)c1c(N)nn2cc(F)cnc12` [I-C-30, 2-amino-6-fluoro-N-(4-methyl-[3,4′-bipyridin]-3′-yl)pyrazolo[1,5-a]pyrimidine-3-carboxamide] the value was 10 to 1000 nM; for `CN1CC[C@H](Oc2ccncc2NC(=O)c2c(N)nn3cc(F)cnc23)C1` [I-O-1, (S)-2-amino-6-fluoro-N-(4-((1-methylpyrrolidin-3-yl)oxy)pyridin-3-yl)pyrazolo[1,5-a]pyrimidine-3-carboxamide], 10 to 1000 nM; for `Nc1nn2cc(Cl)cnc2c1C(=O)Nc1cnccc1-n1ccnc1` [I-N-29, N-(4-(1H-imidazol-1-yl)pyridin-3-yl)-2-amino-6-chloropyrazolo[1,5-a]pyrimidine-3-carboxamide], 10 to 1000 nM. Still for that read-out and setting: for `Nc1nn2cc(F)cnc2c1C(=O)Nc1cncc(Cl)c1N1CCC(C(=O)N2CCN3CCC2CC3)CC1` [I-G-66, N-(4-(4-(1,4-diazabicyclo[3.2.2]nonane-4-carbonyl)piperidin-1-yl)-5-chloropyridin-3-yl)-2-amino-6-fluoropyrazolo[1,5-a]pyrimidine-3-carboxamide] the value was 10 to 1000 nM; for `CN(C)CCOc1cc(Cl)ncc1NC(=O)c1c(N)nn2cc(Cl)cnc12` [I-O-68, 2-amino-6-chloro-N-(6-chloro-4-(2-(dimethylamino)ethoxy)pyridin-3-yl)pyrazolo[1,5-a]pyrimidine-3-carboxamide], 10 to 1000 nM; for `Nc1nn2cc(F)cnc2c1C(=O)Nc1cncc(F)c1N1CCCCC1` [I-N-270, 2-amino-6-fluoro-N-(5-fluoro-4-(piperidin-1-yl)pyridin-3-yl)pyrazolo[1,5-a]pyrimidine-3-carboxamide], 10 to 1000 nM.

`N#CCc1cnc2c(C(=O)Nc3cnccc3OC3COC3)c(N)nn2c1` [I-O-38, 2-amino-6-(cyanomethyl)-N-(4-(oxetan-3-yloxy)pyridin-3-yl)pyrazolo[1,5-a]pyrimidine-3-carboxamide]: under setting [1], the Ki was under 10 nM.

Take `CC(C)N1CCCC1C(=O)N1CCN(c2c(F)cncc2NC(=O)c2c(N)nn3cc(F)cnc23)CC1` (stereo not drawn) [I-N-205, 2-amino-6-fluoro-N-(5-fluoro-4-(4-(1-isopropylpyrrolidine-2-carbonyl)piperazin-1-yl)pyridin-3-yl)pyrazolo[1,5-a]pyrimidine-3-carboxamide]: under setting [1], the Ki was in the range of 10 to 1000 nM.

As to `CN1CC2CC1CN2C(=O)C1CCN(c2c(F)cncc2NC(=O)c2c(N)nn3cc(F)cnc23)CC1` (stereo not drawn) [I-G-53, 2-amino-6-fluoro-N-(5-fluoro-4-(4-(5-methyl-2,5-diazabicyclo[2.2.1]heptane-2-carbonyl)piperidin-1-yl)pyridin-3-yl)pyrazolo[1,5-a]pyrimidine-3-carboxamide], under setting [1], the Ki is 10 to 1000 nM. Turning to `Nc1nn2cc(Cl)cnc2c1C(=O)Nc1cnccc1N1CCN2CCC[C@H]2C1` [I-N-71, (S)-2-amino-6-chloro-N-(4-(hexahydropyrrolo[1,2-a]pyrazin-2(1H)-yl)pyridin-3-yl)pyrazolo[1,5-a]pyrimidine-3-carboxamide], the Ki under setting [1] lay in the range of 10 to 1000 nM.

As for `N#CCc1cnc2c(C(=O)Nc3cnccc3OC3CCOC3)c(N)nn2c1` (racemic) [I-O-37, (R,S)-2-amino-6-(cyanomethyl)-N-(4-((tetrahydrofuran-3-yl)oxy)pyridin-3-yl)pyrazolo[1,5-a]pyrimidine-3-carboxamide], the Ki under setting [1] is under 10 nM.

Turning to `CN(C)CCOCCOc1ccncc1NC(=O)c1c(N)nn2cc(Cl)cnc12` [I-O-47, 2-amino-6-chloro-N-(4-(2-(2-(dimethylamino)ethoxy)ethoxy)pyridin-3-yl)pyrazolo[1,5-a]pyrimidine-3-carboxamide], the Ki under setting [1] fell in the range of 10 to 1000 nM.

`Nc1nn2cc(F)cnc2c1C(=O)Nc1cncc(F)c1N1CCC(C(=O)N2CC3(COC3)C2)CC1` [I-G-72, N-(4-(4-(2-oxa-6-azaspiro[3.3]heptane-6-carbonyl)piperidin-1-yl)-5-fluoropyridin-3-yl)-2-amino-6-fluoropyrazolo[1,5-a]pyrimidine-3-carboxamide]: under setting [1], the Ki lay in the range of 10 to 1000 nM.
